Experimental data reported in patent US20040132707A1, “Catecholate beta-lactam conjugates, method for producing the same and the use thereof” (Gruenenthal GmbH, priority 2001, published 2004).
In brackets after ≈: the same amount, converted by molar mass.

Key:
Experiment in all cases: Microdilution MIC assay (NCCLS M7-A)
Format in all cases: cell-based
[1] = test system: Staphylococcus aureus SG 511; settings: strain SG511; for MIC: Staphylococcus aureus, read-out: MIC Staph. aureus SG511
Experimental: (§1) The antibacterial activity was tested by a microdilution assay according to National Committee for Clinical Laboratory Standards, 1998, Methods for dilution antimicrobial susceptibility tests for bacteria that grow aerobically, Approved standard M7-A, NCCLS, Villanova, Pa.
(§2) The minimal inhibition concentrations (MICs) were determined for the following bacterial strains: The Gram-negative strains Pseudomonas aeruginosa SG 137, ATCC 27853, Escherichia coli ATCC 25922, Klebsiella pneumoniae ATCC 10031, Stenotrophomonas maltophilia GN 12873, Serratia marcescens SG 621 as well as for the Gram-positive strain Staphylococcus aureus SG 511.

[2] = test system: Serratia marcescens SG 621; settings: strain SG621; for MIC: Serratia marcescens, read-out: MIC Serratia marc. SG621
Experimental: as §1, §2

[3] = test system: Klebsiella pneumoniae ATCC 10031; settings: strain ATCC10031; for MIC: Klebsiella pneumoniae
Experimental: as §1, §2

[4] = test system: Stenotrophomonas maltophilia GN 12873; settings: strain GN12873; for MIC: Stenotrophomonas maltophilia, read-out: MIC Stenotroph. maltoph. GN12873
Experimental: as §1, §2

[5] = test system: Pseudomonas aeruginosa ATCC 27853; settings: strain ATCC 27853; for MIC: Pseudomonas aeruginosa, ATCC27853
Experimental: as §1, §2

[6] = test system: Escherichia coli ATCC 25922; settings: strain ATCC 25922; for MIC: Escherichia coli, ATCC25922, read-out: MIC E. coli ATCC 25922
Experimental: as §1, §2

[7] = test system: Pseudomonas aeruginosa SG 137; settings: strain SG137; for MIC: Pseudomonas aeruginosa
Experimental: as §1, §2

| SMILES | MIC Staph. aureus SG511 [1] | MIC Serratia marc. SG621 [2] | MIC Klebsiella pneumoniae ATCC10031 [3] | MIC Stenotroph. maltoph. GN12873 [4] | MIC Pseudomonas aeruginosa ATCC 27853 [5] | MIC E. coli ATCC 25922 [6] | MIC Pseudomonas aeruginosa SG137 [7] | MIC [1] | MIC [2] | MIC [3] | MIC [4] | MIC [5] | MIC [6] | MIC [7] |
| --- | --- | --- | --- | --- | --- | --- | --- | --- | --- | --- | --- | --- | --- | --- |
| CC(=O)Oc1cccc(C(=O)NCCN(CCNC(=O)c2cccc(OC(C)=O)c2OC(C)=O)CCN(Cc2ccc(C(=O)NC(C(=O)NC3C(=O)N4C3SC(C)(C)C4C(=O)O)c3ccccc3)cc2)C(=O)c2cccc(OC(C)=O)c2OC(C)=O)c1OC(C)=O (stereo not drawn) [Example 15] | 0.78 µg/mL (≈ 0.613 µM) | 0.4 µg/mL (≈ 0.314 µM) | 0.1 µg/mL (≈ 0.0786 µM) | <0.05 µg/mL | 0.2 µg/mL (≈ 0.157 µM) | 0.78 µg/mL (≈ 0.613 µM) | <0.05 µg/mL | – | – | – | – | – | – | – |
| COC(=O)Oc1cccc(C(=O)N(C)CCCN(Cc2ccc(C(=O)NC(C(=O)NC3C(=O)N4C3SC(C)(C)C4C(=O)O)c3ccccc3)cc2)C(=O)c2cccc(OC(=O)OC)c2OC(=O)OC)c1OC(=O)OC (stereo not drawn) [Example 16, N-{4-[2,6-bis-(2,3-di-methoxycarbonyloxybenzoyl)-2,6-diaza-heptyl]-benzoyl}-ampicillin] | 1.56 µg/mL (≈ 1.47 µM) | 1.56 µg/mL (≈ 1.47 µM) | 0.1 µg/mL (≈ 0.0945 µM) | <0.05 µg/mL | 0.78 µg/mL (≈ 0.737 µM) | 0.4 µg/mL (≈ 0.378 µM) | <0.05 µg/mL | – | – | – | – | – | – | – |
| CC(=O)Oc1cccc(C(=O)NCCCCN(Cc2ccc(OCC(=O)NC(C(=O)NC3C(=O)N4C3SC(C)(C)C4C(=O)O)c3ccccc3)cc2)C(=O)c2cccc(OC(C)=O)c2OC(C)=O)c1OC(C)=O (stereo not drawn) [Example 17, N-{4-[2,7-Bis-(2,3-diacetoxybenzoyl)-2,7-diaza-heptyl]-phenoxyacetyl}-ampicillin] | 1.56 µg/mL (≈ 1.52 µM) | 6.25 µg/mL (≈ 6.1 µM) | <0.05 µg/mL | 0.2 µg/mL (≈ 0.195 µM) | 6.25 µg/mL (≈ 6.1 µM) | 0.78 µg/mL (≈ 0.762 µM) | 0.2 µg/mL (≈ 0.195 µM) | – | – | – | – | – | – | – |
| CC(=O)Oc1cccc(C(=O)NCCCCN(Cc2ccccc2C(=O)NC(C(=O)NC2C(=O)N3C2SC(C)(C)C3C(=O)O)c2ccccc2)C(=O)c2cccc(OC(C)=O)c2OC(C)=O)c1OC(C)=O (stereo not drawn) [Example 18, N-{2-[2,7-Bis-(2,3-diacetoxybenzoyl)-2,7-diaza-heptyl]-benzooyl}-ampicillin] | 6.25 µg/mL (≈ 6.29 µM) | 0.24 µg/mL (≈ 0.241 µM) | <0.05 µg/mL | <0.05 µg/mL | 0.2 µg/mL (≈ 0.201 µM) | 0.4 µg/mL (≈ 0.402 µM) | 0.04 µg/mL (≈ 0.0402 µM) | – | – | – | – | – | – | – |
| CC(=O)Oc1cccc(C(=O)N(C)CCCN(Cc2ccccc2C(=O)N[C@@H](C(=O)N[C@@H]2C(=O)N3[C@@H]2SC(C)(C)[C@@H]3C(=O)O)c2ccccc2)C(=O)c2cccc(OC(C)=O)c2OC(C)=O)c1OC(C)=O [Example 19, N-{2-[2,6-Bis-(2,3-diacetoxybenzoyl)-2,6-diaza-heptyl]-benzoyl}-ampicillin] | 1.56 µg/mL (≈ 1.57 µM) | 0.78 µg/mL (≈ 0.785 µM) | 0.1 µg/mL (≈ 0.101 µM) | 0.2 µg/mL (≈ 0.201 µM) | 3.12 µg/mL (≈ 3.14 µM) | 0.78 µg/mL (≈ 0.785 µM) | 0.1 µg/mL (≈ 0.101 µM) | – | – | – | – | – | – | – |
| CC(=O)Oc1cccc(C(=O)NCCCN(CCN(CCCN(Cc2ccc(C(=O)N[C@@H](C(=O)N[C@@H]3C(=O)N4[C@@H]3SC(C)(C)[C@@H]4C(=O)O)c3ccccc3)cc2)C(=O)c2cccc(OC(C)=O)c2OC(C)=O)C(=O)c2cccc(OC(C)=O)c2OC(C)=O)C(=O)c2cccc(OC(C)=O)c2OC(C)=O)c1OC(C)=O [Example 20, N-{4-[2,6,9,13-Tetrakis-(2,3-diacetoxybenzoyl)-2,6,9,13-tetraaza-tridecyl]-benzoyl}-ampicillin] | 6.25 µg/mL (≈ 4.11 µM) | 1.56 µg/mL (≈ 1.03 µM) | 0.78 µg/mL (≈ 0.513 µM) | 0.2 µg/mL (≈ 0.132 µM) | 1.56 µg/mL (≈ 1.03 µM) | 1.56 µg/mL (≈ 1.03 µM) | 0.4 µg/mL (≈ 0.263 µM) | – | – | – | – | – | – | – |
| COc1ccc(CN(CCCCNC(=O)c2cccc(OC(C)=O)c2OC(C)=O)C(=O)c2cccc(OC(C)=O)c2OC(C)=O)c(C(=O)N[C@@H](C(=O)N[C@@H]2C(=O)N3[C@@H]2SC(C)(C)[C@@H]3C(=O)O)c2ccccc2)c1OC [Example 21, N-{6-[2,7-Bis-(2,3-Diacetoxybenzoyl)-2,7-diaza-heptyl]-2,3-dimethoxy-benzoyl}-ampicillin] | 0.2 µg/mL (≈ 0.19 µM) | 1.56 µg/mL (≈ 1.48 µM) | 0.4 µg/mL (≈ 0.379 µM) | 0.2 µg/mL (≈ 0.19 µM) | 12.5 µg/mL (≈ 11.9 µM) | 3.12 µg/mL (≈ 2.96 µM) | 0.78 µg/mL (≈ 0.74 µM) | – | – | – | – | – | – | – |
| COC(=O)Oc1cccc(C(=O)N(C)CCCN(Cc2ccccc2C(=O)N[C@@H](C(=O)N[C@@H]2C(=O)N3[C@@H]2SC(C)(C)[C@@H]3C(=O)O)c2ccccc2)C(=O)c2cccc(OC(=O)OC)c2OC(=O)OC)c1OC(=O)OC [Example 22, N-{2-[2,6-Bis-(2,3-di-methoxycarbonyloxy-benzoyl)-2,6-diaza-heptyl]-benzoyl}-ampicillin] | 6.25 µg/mL (≈ 5.91 µM) | 0.78 µg/mL (≈ 0.737 µM) | 0.4 µg/mL (≈ 0.378 µM) | <0.05 µg/mL | 0.4 µg/mL (≈ 0.378 µM) | 1.56 µg/mL (≈ 1.47 µM) | 0.2 µg/mL (≈ 0.189 µM) | – | – | – | – | – | – | – |
| CC(=O)Oc1cccc(C(=O)NCCCN(CCCN(Cc2ccccc2C(=O)N[C@@H](C(=O)N[C@@H]2C(=O)N3[C@@H]2SC(C)(C)[C@@H]3C(=O)O)c2ccccc2)C(=O)c2cccc(OC(C)=O)c2OC(C)=O)C(=O)c2cccc(OC(C)=O)c2OC(C)=O)c1OC(C)=O [Example 23, N-{2-[2,6,10-Tris-(2,3-diacetoxybenzoyl)-2,6,10-triaza-decyl]-benzoyl}-ampicillin] | 12.5 µg/mL (≈ 9.94 µM) | 3.12 µg/mL (≈ 2.48 µM) | 0.78 µg/mL (≈ 0.62 µM) | 0.2 µg/mL (≈ 0.159 µM) | 1.56 µg/mL (≈ 1.24 µM) | 6.25 µg/mL (≈ 4.97 µM) | 0.78 µg/mL (≈ 0.62 µM) | – | – | – | – | – | – | – |
| CC(=O)Oc1cccc(C(=O)NCCCN(CC(=O)NC(C(=O)NC2C(=O)N3C2SC(C)(C)C3C(=O)O)c2ccccc2)C(=O)c2cccc(OC(C)=O)c2OC(C)=O)c1OC(C)=O (stereo not drawn) [Example 24, N-[3,7-Bis-(2,3-diacetoxybenzoyl)-3,7-diaza-heptanoyl]-ampicillin] | 3.12 µg/mL (≈ 3.45 µM) | 0.78 µg/mL (≈ 0.863 µM) | 0.2 µg/mL (≈ 0.221 µM) | 0.2 µg/mL (≈ 0.221 µM) | 3.12 µg/mL (≈ 3.45 µM) | 3.12 µg/mL (≈ 3.45 µM) | 3.12 µg/mL (≈ 3.45 µM) | – | – | – | – | – | – | – |
| CC(=O)Oc1cccc(C(=O)NCCCCCN(CC(=O)NC(C(=O)NC2C(=O)N3C2SC(C)(C)C3C(=O)O)c2ccccc2)C(=O)c2cccc(OC(C)=O)c2OC(C)=O)c1OC(C)=O (stereo not drawn) [Example 25, N-[3,9-Bis-(2,3-diacetoxybenzoyl)-3,9-diaza-nonanoyl]-ampicillin] | 2.5 µg/mL (≈ 2.68 µM) | 0.04 µg/mL (≈ 0.0429 µM) | <0.005 µg/mL | 0.02 µg/mL (≈ 0.0215 µM) | 0.16 µg/mL (≈ 0.172 µM) | 0.16 µg/mL (≈ 0.172 µM) | 0.04 µg/mL (≈ 0.0429 µM) | – | – | – | – | – | – | – |
| CC(=O)Oc1cccc(C(=O)NCCN(CC(=O)N[C@@H](C(=O)N[C@@H]2C(=O)N3[C@@H]2SC(C)(C)[C@@H]3C(=O)O)c2ccccc2)C(=O)c2cccc(OC(C)=O)c2OC(C)=O)c1OC(C)=O [Example 26, N-[3,6-Bis-(2,3-diacetoxybenzoyl)-3,6-diaza-hexanoyl]-ampicillin] | 3.12 µg/mL (≈ 3.51 µM) | 0.78 µg/mL (≈ 0.877 µM) | 0.1 µg/mL (≈ 0.112 µM) | 0.78 µg/mL (≈ 0.877 µM) | 0.78 µg/mL (≈ 0.877 µM) | 0.78 µg/mL (≈ 0.877 µM) | 0.4 µg/mL (≈ 0.449 µM) | – | – | – | – | – | – | – |
| CC1(C)S[C@@H]2[C@H](NC(=O)[C@H](N)c3ccccc3)C(=O)N2[C@H]1C(=O)O [ampicillin, reference compound] | – | – | – | – | – | – | – | 0.4 µg/mL (≈ 1.14 µM) | 25 µg/mL (≈ 71.5 µM) | 6.25 µg/mL (≈ 17.9 µM) | > 100 µg/mL | > 100 µg/mL | 6.25 µg/mL (≈ 17.9 µM) | > 100 µg/mL |
| CC1(C)S[C@@H]2[C@H](NC(=O)[C@H](NC(=O)N3CCNC3=O)c3ccccc3)C(=O)N2[C@H]1C(=O)O [azlocillin, reference compound] | – | – | – | – | – | – | – | 0.4 µg/mL (≈ 0.867 µM) | 50 µg/mL (≈ 108 µM) | 6.25 µg/mL (≈ 13.5 µM) | 25 µg/mL (≈ 54.2 µM) | 6.25 µg/mL (≈ 13.5 µM) | 6.25 µg/mL (≈ 13.5 µM) | 6.25 µg/mL (≈ 13.5 µM) |
| C[C@@H](O)[C@H]1C(=O)N2C(C(=O)O)=C(S[C@@H]3CN[C@H](C(=O)N(C)C)C3)[C@H](C)[C@H]12 [meropenem, reference compound] | – | – | – | – | – | – | – | 0.1 µg/mL (≈ 0.261 µM) | 0.06 µg/mL (≈ 0.156 µM) | 0.04 µg/mL (≈ 0.104 µM) | > 100 µg/mL | 0.4 µg/mL (≈ 1.04 µM) | 0.04 µg/mL (≈ 0.104 µM) | 0.2 µg/mL (≈ 0.522 µM) |
